Test results as given in the SangsterLogP compilation.

logP | SMILES
-0.39 | CC1=C(C(=O)O)N2C(=O)C(NC(NC(=O)c3nn(-c4ccc(S(N)(=O)=O)cc4)c(=O)[nH]c3=O)c3ccc(O)cc3)C2SC1 (centres undefined)
2.53 | CC1=C(C(=O)O)N2C(=O)C(NC(=O)C(NC(=O)c3nn(-c4ccc(C)cc4)c(=O)[nH]c3=O)c3cccc(O)c3)C2SC1 (centres undefined)
2.71 | CC(=O)c1ccc(-n2nc(C(=O)NC(C(=O)NC3C(=O)N4C(C(=O)O)=C(C)CSC34)c3ccccc3)c(=O)[nH]c2=O)cc1 (centres undefined)
3.19 | CC1=C(C(=O)O)N2C(=O)C(NC(=O)C(NC(=O)c3nn(-c4ccccc4)c(=O)[nH]c3=O)c3ccccc3)C2SC1 (centres undefined)
3.87 | COc1ccc(-n2nc(C(=O)NC(C(=O)NC3C(=O)N4C(C(=O)O)=C(C)CSC34)c3ccccc3)c(=O)[nH]c2=O)cc1 (centres undefined)
4.97 | CC1=C(C(=O)O)N2C(=O)C(NC(=O)C(NC(=O)c3nn(-c4ccc(Cl)cc4Cl)c(=O)[nH]c3=O)c3ccccc3)C2SC1 (centres undefined)
5.16 | CCOc1ccc(-n2nc(C(=O)NC(C(=O)NC3C(=O)N4C(C(=O)O)=C(C)CSC34)c3ccccc3)c(=O)[nH]c2=O)cc1 (centres undefined)

The next lines start with the molecule.

SMILES | logP
CC1=C(C(=O)O)N2C(=O)[C@@H](NC(=O)[C@H](NC(=O)c3nn(-c4ccccc4)c(=O)[nH]c3=O)c3ccc(O)cc3)[C@H]2SC1 | 1.26
CC1=C(C(=O)O)N2C(=O)C(NC(=O)C(NC(=O)c3nn(-c4ccc(C)cc4)c(=O)[nH]c3=O)c3ccccc3)C2SC1 (centres undefined) | 4.8
CC1=C(C(=O)O)N2C(=O)C(NC(=O)C(NC(=O)c3nn(-c4ccc([N+](=O)[O-])cc4)c(=O)[nH]c3=O)c3ccccc3)C2SC1 (centres undefined) | 3.15
CC1=C(C(=O)O)N2C(=O)C(NC(=O)C(NC(=O)c3nn(-c4ccc(F)c(Cl)c4)c(=O)[nH]c3=O)c3ccc(O)cc3)C2SC1 (centres undefined) | 3.1
CC(=O)c1ccc(-n2nc(C(=O)NC(C(=O)NC3C(=O)N4C(C(=O)O)=C(C)CSC34)c3cccc(O)c3)c(=O)[nH]c2=O)cc1 (centres undefined) | -0.04
CC1=C(C(=O)O)N2C(=O)C(NC(=O)C(NC(=O)c3nn(-c4ccc(Cl)cc4Cl)c(=O)[nH]c3=O)c3ccc(O)cc3)C2SC1 (centres undefined) | 3.08
CC1=C(C(=O)O)N2C(=O)C(NC(=O)C(NC(=O)c3nn(-c4ccc(Cl)cc4)c(=O)[nH]c3=O)c3ccccc3)C2SC1 (centres undefined) | 4.91
